Assay results as given in patent US12146143B2, “Method for producing transformed plant and transformation agent” (priority 2019, dated 2024).

Columns and labels:
[1] = tested on: calluses of the mutant ghy; assay: Redifferentiation from calluses with plant hormones; format: cell-based, Chenopodium quinoa
Experimental: A medium was produced by partially modifying spinach redifferentiation medium composition reported in the literature (Jinhua Bao (2009) Establishment of Transformation System for Spinach based on Agrobacterium Method and Introduction of Useful Gene, Chiba University Graduate School doctoral dissertation), and was used in the experiment (Table 2). Non-transformed calluses induced from seedling sections of the Kd variety were cultured under preset conditions shown in Table 13. A “+” group for the redifferentiation inducing light condition was cultured in an incubator at 20° C. under 8-h light/16-h dark conditions, and a “−” group was placed in a steel can in an incubator under the same conditions, and was cultured under a light-shielding condition. In groups with GA concentrations of 1 and 2, non-transformed calluses were plated on redifferentiation media supplemented with gibberellin at 1 mg/L and 2 mg/L, respectively.
Transformed calluses were successfully formed in the mutant ghy variety incapable of synthesizing betalain pigments. In view of this, an attempt was made to induce redifferentiation from calluses of the mutant ghy. 2,4-Dichlorophenoxyacetic acid (2,4-D) serving as a plant hormone having an auxin-like action, and benzyladenine and kinetin each serving as a plant hormone having a cytokinin-like action were combined at various concentrations, and redifferentiation was attempted. […] In addition, when the concentrations of both of 2,4-D and the cytokinin-like plant hormone (benzyladenine or kinetin) were increased, hard and rounded calluses were obtained. […] However, redifferentiation of any other organ was not found.

[2] = tested on: quinoa (Kd, ghy, rebc, and ghy/rebc); assay: Floral dip/non-cutting-sealing method using improved bacterium, GUS staining of female organs; format: in vivo, Chenopodium quinoa; details: mutant ghy/rebc
Experimental: Bacteria used in the experiment were streaked on LB solid medium supplemented with 100 mg/L kanamycin and 100 mg/L hygromycin, and was cultured at 26° C. under a 24-h dark condition for 2 days (Table 3). The proliferated bacteria were transferred to 50 mL of LB liquid medium supplemented with 100 mg/L kanamycin and 100 mg/L hygromycin (in a 300 mL Erlenmeyer flask), and were cultured using a shaking thermostatic water bath BW201 under the conditions of 26° C., about 24 hours, and about 130 rpm. After the culture, the bacterial culture suspension (OD600=about 2.0) was transferred to a 50 mL conical tube, and centrifuged using Mx-301 Highspeed Refrigerated Micro Centrifuge (10 minutes, […]). The supernatant was discarded, followed by addition of 20 mL of a 5% (w/v) sucrose solution containing Silwet L-77 and resuspension using VORTEX-GENIE 2 to produce a bacterial suspension (results shown in Example 1 and results shown in Example 3 were obtained by inoculation experiments using Silwet L-77 at 0.02% (v/v) and 0.04% (v/v), respectively). At the time of inoculation with the bacterial suspension, quinoa to be used was placed in a sealed container (Mippail (Fuji System Pack, Tokyo, Japan)) filled with water, and the bacterial suspension was dropped onto an ear using P200 Pipetman (Gilson, Manhattan, NY, USA). […]

O=C(O)COc1ccc(Cl)cc1Cl [2,4-D, 2,4-Dichlorophenoxyacetic acid]
Redifferentiation of adventitious roots ([1]; medium containing only 0.01 mg/L or 0.1 mg/L 2,4-D): adventitious roots were redifferentiated

CC1=CC(=O)CC(C)(C)[C@@]1(O)/C=C/C(C)=C\C(=O)O [ABA, Abscisic acid]
Individuals exhibiting female organ-specific GUS expression ([2]; 500 mM ABA added to suspension of MAFF311303pTiMAFF301276ΔT-DNA, without cutting-sealing): 60% | Female organ-specific GUS expression ratio relative to the case of adding no ABA ([2]; 500 mM ABA vs no ABA): 6 times

c1ccc(CNc2ncnc3nc[nH]c23)cc1 [benzyladenine]
Colour of calluses ([1]; calluses plated in media containing the hormone): turned darker green | Redifferentiation of adventitious roots ([1]; medium containing only 1 mg/L or 2 mg/L benzyladenine): adventitious roots were redifferentiated

c1coc(CNc2ncnc3[nH]cnc23)c1 [kinetin]
Elongation of adventitious roots ([1]; medium containing only 1 mg/L kinetin): showed remarkable elongation of adventitious roots
